Patent US20040121307A1, “Early detection of cellular differentiation using optophoresis” (Genoptix, Inc, priority 2002, published 2004)
Structures can show the parent of a compound that is named as a salt. Where two headings read alike, the source gives them in different places.

Legend:
U937 cells [1] = assay: Experiment 3: PMA inhibition by bisindolymaleimide, escape velocity; type: cell-based; conditions: for average escape velocity / escape velocity, Ave.: four hours; for escape velocity, Ave.: no PMA
Description: The objective of this experiment was to test the effect of bisindolymaleimide on cells exposed to PMA. Bisindolymaleimide is a Protein Kinase C inhibitor and should block the effect of PMA on U937 cells and their escape velocities. As shown in this and prior experiments, exposure of U937 cells to PMA results in an increase in the escape velocity of the cells. Therefore, it is anticipated that addition of bisindolymaleimide will reduce or eliminate the increase in escape velocity caused by PMA. This has in fact been observed in the data shown below.
Bisindolymaleimide was tested at two concentrations: 200 ng/ml and 50 ng/ml. Samples not treated with bisindolymaleimide received an equivalent amount of the carrier, MeOH, as a control. […] The concentration of PMA tested was 10 ng/ml. Samples not receiving PMA received DMSO.
Once the flasks were prepared, they were incubated at 37° C. 5% CO2 for four hours. At the four hour timepoint, 300 μl of cells were removed from each flask and pelleted at 5000 rpm for 5 minutes. The cells were then resuspended in 6 ml PBS/1% BSA and 60 μl trypan blue.

[2] = system: CD11b expression in HL-60 cells; assay: FACS CD11b expression profile; type: cell-based; conditions: 1% DMSO
Experimental: (§1) Fast scan analysis was also performed on HL-60 cells that were treated with PMA and DMSO. A time course evaluation of PMA treated HL-60 cells was performed with fast scan data taken at 16 hours, 24 hours, 40 hours, and 72 hours post-treatment with 400 ng/ml PMA. A control sample of HL-60 cells was also tested using EtOH as the vehicle for purposes of comparing the differentiated cells with the undifferentiated HL-60 cells. The PMA-treated and control cells were harvested and trypsinized. The samples were then resuspended in PBS/1% BSA. A set of samples was also obtained and left as pellets at 4° C. for subsequent FACS analysis.
FIG. 145 illustrates a histogram of the travel distance of the control cells as well as the PMA-treated cells at 16 hours, 24 hours, 40 hours, and 72 hours post-treatment. FIG. 146 illustrates the mean travel distances of the control cells as well as the PMA-treated cells at 16 hours, 24 hours, 40 hours, and 72 hours post-treatment. FIG. 147 illustrates the FACS CD11b expression profile in PMA-treated HL-60 cells as well as the control. CD11b is a known marker of cellular differentiation and is expressed on the surface of differentiating cells. […] The data illustrate that Optophoretic analysis can be used as an assay for the detection and quantification of cellular differentiation. […]

HL-60 cells = assay: Cellular differentiation of HL-60, fast scan time course; type: cell-based; conditions: 1% DMSO
Experimental: as §1
A time course evaluation of DMSO treated HL-60 cells was performed with fast scan data taken at 16 hours, 24 hours, 40 hours, and 70 hours post-treatment with 1% DMSO. A control sample of HL-60 cells was also tested for purposes of comparing the differentiated cells with the undifferentiated HL-60 cells. The DMSO-treated and control cells were then harvested and resuspended in PBS/1% BSA. A set of samples was also obtained and left as pellets at 4° C. for subsequent FACS analysis.

[3] = system: wild type Staphylococcus aureus; assay: Bacterial screen for drug sensitivity, escape velocity, sensitive strain; type: cell-based
Experimental: (§2) In this experiment, escape velocity was measured over time in wild type Staphylococcus aureus and an Erythromycin-resistant strain. 5 μg/ml of Erythromycin was applied to both the wild type Staphylococcus aureus and an Erythromycin-resistant strain. Escape velocity measurements were taken at time zero, 30 minutes post-treatment, and 3 hours post-treatment. […] In this experiment, however, escape velocity measurements were made at time zero, 30 minutes post-treatment, and 1 hour post-treatment, and 2 hours post-treatment. A reduction in escape velocity of the Erythromycin-sensitive strain can be seen at 1 hour post-treatment.

[4] = system: Erythromycin-resistant strain; assay: Bacterial screen for drug sensitivity, escape velocity, resistant strain; type: cell-based, Staphylococcus aureus; conditions: 5 μg/ml Erythromycin (FIG. 80)
Experimental: as §2

[5] = system: K562, BV-173, EM-3, and U-937 cells; assay: Experiment 8: effect of Gleevec, escape velocity; type: cell-based; conditions: 72 hours after exposure, all four cell types
Description: The U-937 cells have no copies of the gene. The K-562 line of cells has, on average, one copy of the gene per cell. The BV-173line of cells has, on average, three copies of the gene per cell. The EM-3 cell line has, on average, five copies of the gene per cell. […] FIG. 44 illustrates the measured escape velocities (average) for each of the four cell types. […] In addition, the decrease in escape velocity for the Gleevec-treated cells was more pronounced in those cell lines that had higher copy numbers of the Bcr-Abl gene.

EM-3 cells = assay: Experiments 9 and 9.1: Gleevec and other kinase inhibitors, fast scan; type: cell-based; conditions: for Mean Distance: 1 μM, 48 hours of exposure
Experimental: A second group of cells were treated with 1 μM Src-Family Protein Tyrosine Kinase Inhibitor Set, obtained from CALBIOCHEM (Cat. No. 567816). The Src Set contained four inhibitors, namely, Genistein, Herbimycin A, Streptomyces sp., PP2, and PP3. A third group of cells were treated with 1 μM Staurosporine. A fourth group of cells were treated with 1 μM TK Inhibitor Set, also obtained from CALBIOCHEM (Cat. No. 657021). The TK Inhibitor Set contained five inhibitors, Genistein, PP2, AG490, AG1296, and AG1478. […] Measurements were taken after 48 hours of exposure.
Fast scan analysis was performed after 48 hours of incubation.

Jurkat cells = assay: Experiment 5: TNF-α effect, escape velocity; type: cell-based; conditions: TNF inhibitor added with TNF (FIG. 36)
Experimental: After 48 hours of incubation, the cells were removed and centrifuged for 5 minutes at 5,000 rpm. Then the cells were resuspended in PBS/1% BSA and trypan blue. A higher power setting, 140 mW instead of 100 mW, was used for this experiment. The escape velocities were measured as follows:
In this experiment Leflunomide and Silymarin were added with TNF to see if the anticipated increase in escape velocity measurements could be counteracted by the presence of the TNF inhibitors.

U937 cells [6] = system: U937 cells
Experimental: This experiment is designed to compare the effects of two concentrations of sodium salicylate on U937 cells. Sodium salicylate was prepared at two concentrations: 20 mM and 5 mM. The escape velocities of the cells was tested at 5 hours, 24 hours and 47 hours. At each timepoint, 30 μl of sample was pelleted at 5,000 rpm for 5 minutes and then resuspended in PBS/1% BSA and trypan blue.

Chang liver cells [7] = type: cell-based; conditions: human, 1 μm
Experimental: (§3) This experiment is designed to test the effect of ketoconazole on human liver cells. Ketoconazole induces toxicity in liver cells. The sample cells were Chang liver cells. The concentration of ketoconazole used to treat the cells was 1 μm. Escape velocity and fast scan protocols were applied to determine the impact, if any, of ketoconazole treatment. […] Consequently, Optophoresis was able to detect an effect on the escape velocity of treated cells within 1.5 hours of exposure to ketoconazole. FIGS. 44-45 show the fast scan results of ketoconazole-treated Chang liver cells. […] The ketoconazole-treated cells generally traveled a smaller distance as compared to the non-treated control.

Chang liver cells [8] = assay: Experiment 10: toxicity of ketoconazole, escape velocity; type: cell-based, human; conditions: 1 μm ketoconazole, 1.5 hours of treatment
Experimental: as §3

CEM/C2 cell line = conditions: cell lines obtained from ATCC; cited from earlier work
U937 cells [9] = system: U937 cells; remark: listed apart in the source
Experimental: Both groups of cells were incubated with compound in 0.1% DMSO (or simply 0.1% DMSO in the case of the control) for four hours. At the end of the incubation period, the cells were centrifuged down for 3-5 minutes at 5000 rpm in a Model V microcentrifuge (VWR scientific). The supernatant was then aspirated and the pellet resuspended in 1 ml PBS/1% BSA buffer plus 1:10 trypan blue. Escape velocity measurements were then taken of the cells.
The different groups of cells were incubated for various time periods (3, 6, 9, and 24 hours) and escape velocity measurements were made. At the end of the incubation period, the cells were centrifuged down for five minutes at 5000 rpm. The supernatant was then removed and the pellet resuspended in 1 ml PBS/1% BSA buffer plus 1:10 trypan blue. The cells were then loaded onto a cover slip containing agarose that was spin-coated onto the surface thereof.
The cells were incubated for four hours and prepped for testing in accordance with the procedures described above in the prior experiments. The cells were then loaded onto a cover slip containing agarose that was spin-coated onto the surface thereof. Escape velocity measurements were then taken using a 100 mW laser with a diameter of 21.5 pixels.
The groups of cells were incubated (or simply 0.1% DMSO in the case of the control) for six hours. At the end of the incubation period, the cells were centrifuged down for five minutes at 5000 rpm. The supernatant was then removed and the pellet resuspended in 1 ml PBS/1% BSA buffer plus 1:10 trypan blue. The cells were then loaded onto a cover slip containing agarose that was spin-coated onto the surface thereof. Escape velocity measurements were then taken using a 100 mW laser with a diameter of 28 pixels. Escape velocity measurements were then taken of the cells.
The groups of cells were incubated for six hours with compound (or simply DMSO in the case of the control). At the end of the incubation period, the cells were centrifuged down for five minutes at 5000 rpm. […]

CCRF-CEM cells = assay: Experiment 14, fifth experiment: topotecan on sensitive cell line, escape velocity; type: cell-based; conditions: 10 μM topotecan, 6 hours
Experimental: In a fifth experiment, two different cell lines obtained from ATCC which have varying degrees of sensitivity to topoisomerase I inhibitors such as camptothecin and topotecan were subject to Optophoretic analysis. A group of cells from a parental cell line CCRF-CEM that is sensitive to camptothecin and topotecan were incubated for 6 hours with 10 μM topotecan. Another group of cells from the cell line CEM/C2, which are 970-fold less sensitive to camptothecin and topotecan, were also incubated for 6 hours with 10 μM topotecan. Control cells from both the CCRF-CEM and CEM/C2 cell lines were also tested. The cells were incubated for six hours and prepared for testing in accordance with the procedures described above in the prior experiments. The cells were then loaded onto a cover slip containing agarose that was spin-coated onto the surface thereof. Escape velocity measurements were then taken using a 100 mW laser with a diameter of 28 pixels. […] Optophoretic analysis was thus able to score cross-resistance of camptothecin-resistant cell lines to topotecan, an analog of camptothecin.

CN(C)CCCn1cc(C2=C(c3c[nH]c4ccccc34)C(=O)NC2=O)c2ccccc21 [Bisindolymalemide]
average escape velocity (U937 cells [1]; 50 ng/ml bisindolymaleimide + 10 ng/ml PMA): 15.1 μm/sec | escape velocity, Ave. (U937 cells [1]; 50 ng/ml bisindolymaleimide): 13.9 | effect on the optophoretic shift in escape velocity caused by PMA (U937 cells [1]; 200 ng/ml BIMI for 30 minutes followed by 10 ng/ml PMA (FIG. 33)): blocked the optophoretic shift in escape velocity | average escape velocity (U937 cells [1]; 200 ng/ml bisindolymaleimide + 10 ng/ml PMA): 14.5 μm/sec | escape velocity, Ave. (U937 cells [1]; 200 ng/ml bisindolymaleimide): 14.0

C[S+](C)[O-] [DMSO, dimethylsulfoxide]
time after treatment at which FACS detected a change in CD11b expression levels [2]: 40 h | course of mean travel distance (HL-60 cells; 16 to 72 hours (FIG. 149)): mean travel distance progressively decreased as time elapsed | time after treatment at which a noticeable decrease in mean travel distance was detected (HL-60 cells; fast scan): ≤ 16 h

CC[C@H]1OC(=O)[C@H](C)[C@@H](O[C@H]2C[C@@](C)(OC)[C@@H](O)[C@H](C)O2)[C@H](C)[C@@H](O[C@@H]2O[C@H](C)C[C@H](N(C)C)[C@H]2O)[C@](C)(O)C[C@@H](C)C(=O)[C@H](C)[C@@H](O)[C@]1(C)O [Erythromycin]
time at which a reduction in escape velocity can be seen ([3]; 5 μg/ml Erythromycin (FIG. 81)): 1 h | change of escape velocity over time ([3]; 5 μg/ml Erythromycin, time zero, 30 minutes, 3 hours post-treatment (FIG. 80)): escape velocity of the Erythromycin-sensitive strain decreases | escape velocity after treatment [4]: same escape velocity as the untreated Erythromycin-sensitive strain

Cc1ccc(NC(=O)c2ccc(CN3CCN(C)CC3)cc2)cc1Nc1nccc(-c2cccnc2)n1 [Gleevec, imatinib mesylate]
escape velocity as compared to non-treated cells [5]: significantly lower escape velocity | Mean Distance (EM-3 cells): 13.199 μm | response of mean travel distance to varying concentration (EM-3 cells; 0.06 to 4 μM Gleevec, 48 hours): dose-dependent response

Cc1oncc1C(=O)Nc1ccc(C(F)(F)F)cc1 [Leflunomide]
effect on the increase in escape velocity caused by TNF (Jurkat cells): mitigate the increase in escape velocity caused by TNF

O=C([O-])c1ccccc1O.[Na+] [Sodium Salicylate, sodium salicylate]
shift in escape velocities (U937 cells [6]; 5 mM and 20 mM salicylic acid, 5 and 24 hours (FIG. 37)): slight but statistically significant shift in escape velocities | escape velocity, Ave. (U937 cells [6]; 5 mM sodium salicylate, 5 hours): 14.1 | escape velocity, Ave. (U937 cells [6]; 5 mM sodium salicylate, 24 hours): 15.2 | escape velocity, Ave. (U937 cells [6]; 5 mM sodium salicylate, 47 hours): 13.7 | escape velocity, Ave. (U937 cells [6]; 20 mM sodium salicylate, 5 hours): 13.3 | escape velocity, Ave. (U937 cells [6]; 20 mM sodium salicylate, 24 hours): 16.0 | cell viability (trypan blue) (U937 cells [6]; 20 mM, 47 hours): all cells were dead

CN[C@@H]1C[C@H]2O[C@@](C)([C@@H]1OC)n1c3ccccc3c3c4c(c5c6ccccc6n2c5c31)C(=O)NC4 [Staurosporine]
Mean Distance (EM-3 cells): 9.250 μm

CC(=O)N1CCN(c2ccc(OCC3COC(Cn4ccnc4)(c4ccc(Cl)cc4Cl)O3)cc2)CC1 (stereo not drawn) [ketoconazole]
mean travel distance (Chang liver cells [7]): 20.97 μm | escape velocity versus control (Chang liver cells [8]): marked decrease in escape velocity

CC[C@@]1(O)C(=O)OCc2c1cc1n(c2=O)Cc2cc3c(CN(C)C)c(O)ccc3nc2-1 [topotecan]
fold less sensitive than parental CCRF-CEM (CEM/C2 cell line): 970 fold | shift in escape velocity (U937 cells [9]; 4 μg/ml, four hours (FIG. 54)): larger shift in escape velocity as compared to the camptothecin-treated cells | cell death (U937 cells [9]; human, 24 h, 10 μM): virtually all of the treated U937 cells were dead | potency by escape velocity concentration curves (U937 cells [9]; six hours, FIG. 65 versus FIG. 70): higher potency of topotecan as compared to camptothecin | decrease in escape velocity (CCRF-CEM cells): larger decrease in escape velocity as compared to the CEM/C2 cells
